Among the data in publication PMC10380810, “Nitazoxanide Inhibits the Bifunctional Enzyme GlG6PD::6PGL of Giardia lamblia: Biochemical and In Silico Characterization of a New Druggable Target” (International Journal of Molecular Sciences, 2023) are IC50 values, retold here.

The experiment concerns the target T1, GlG6PD::6PGL (fused bifunctional glucose-6-phosphate dehydrogenase::6-phosphogluconolactonase) (Giardia duodenalis, UniProt A8BWM5).
T1 construct: gene GL50803_008682; recombinant fused GlG6PD::6PGL; activity of the G6PD domain measured
Briefly: residual G6PD activity at […] nm after […] h preincubation at […] °C with purified recombinant enzyme; k2 […] ^-1 s^-1; intrinsic and ANS fluorescence changes. It counts as biochemical.

T1 sequence (A8BWM5 entry or part of it): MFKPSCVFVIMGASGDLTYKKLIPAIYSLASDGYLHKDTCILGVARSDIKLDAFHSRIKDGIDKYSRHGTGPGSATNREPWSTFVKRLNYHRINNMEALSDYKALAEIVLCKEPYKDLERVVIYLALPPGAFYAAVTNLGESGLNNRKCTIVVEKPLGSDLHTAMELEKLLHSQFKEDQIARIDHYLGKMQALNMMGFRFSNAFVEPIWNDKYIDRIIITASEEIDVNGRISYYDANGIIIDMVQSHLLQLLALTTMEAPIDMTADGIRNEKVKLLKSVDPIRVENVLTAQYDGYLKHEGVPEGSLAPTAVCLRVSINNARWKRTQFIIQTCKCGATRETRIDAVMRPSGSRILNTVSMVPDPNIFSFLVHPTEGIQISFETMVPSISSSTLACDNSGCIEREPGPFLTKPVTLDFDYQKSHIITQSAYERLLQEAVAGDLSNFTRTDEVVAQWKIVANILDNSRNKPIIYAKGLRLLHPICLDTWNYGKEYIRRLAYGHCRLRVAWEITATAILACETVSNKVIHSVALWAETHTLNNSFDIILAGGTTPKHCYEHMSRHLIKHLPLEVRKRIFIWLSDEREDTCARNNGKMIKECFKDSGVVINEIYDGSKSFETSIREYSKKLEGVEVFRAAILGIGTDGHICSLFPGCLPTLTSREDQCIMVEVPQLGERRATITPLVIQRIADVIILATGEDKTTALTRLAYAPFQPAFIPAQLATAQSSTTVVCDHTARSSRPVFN

Broadly, the IC50 is the concentration that gives 50% inhibition. As to `CC(=O)Oc1ccccc1C(=O)Nc1ncc([N+](=O)[O-])s1` [NTZ, 2-acetyloloxy-N-(5-nitro-2thiazolyl)benzamide], the IC50 stood at 40 µM.
